In US9956211B2, “Pharmaceutical compositions comprising a local anaesthetic such as bupivacaine for local administration to the mouth or throat” (MOBERG PHARMA AB, priority 2011, dated 2018):
Read-outs that look alike come from different tables or passages of the source.

Experiments:
[1] = cited from earlier work
[2] = Study VII: single dose kinetics, fasting; type: in vivo, human; conditions: 25 mg compressed lozenge, fasting vs not fasting
Method: The single dose kinetics was conducted over 10 hours. The subjects had been fasting from 12 pm the night before the study began. The subjects were administrated a compressed lozenge containing 25 mg of bupivacaine. The blood collection began at approximately 7 am.
In our previous results we have seen an extra peak. The aim of this study was to investigate if the extra peak was from gastrointestinal absorption.
Baseline blood sample. Administration of lozenge. Blood sample at the following times: 0 min, 15 min, 30 min, 45 min, 60 min, 75 min, 90 min, 105 min, 120 min, 150 min, 180 min, 210 min, 240 min, 300 min, 360 min, 420 min, 480 min, 540 min and 600 min. (Time 0 minutes is when the lozenge is completely dissolved in the mouth.)

[3] = Activity after heating during the casting process; type: physicochemical; conditions: heated at up to 180° C. during the casting process
[4] = Study I: single dose kinetics of compressed bupivacaine lozenge; type: in vivo, human
Method: Bupivacaine has not been used as local oral administration before.
The purpose of this study is to investigate the pharmacokinetics of bupivacaine after topical oral administration. The plasma concentration of bupivacaine is measured after absorption over an intact oral mucosa after administration of a compressed lozenge containing respectively 5, 10, 25 and 50 mg bupivacaine as a single dose and 25 mg as multiple doses.
(§1) These are prospective, descriptive studies. The subjects were ten healthy young males. Samples of full blood were taken in lithium-heparin pipes for anticoagulant effect. After the blood sample is collected it is centrifuged at 2500 rounds per minute for 15 minutes at 4° C. Approximately 1 ml plasma is taken from the sample and put into vials and right away put into a −80° C. freezer, where it is kept until analysis.
The aim of the study was to investigate the pharmacokinetics of bupivacaine by topical oral administration. The concentration of bupivacaine was measured in the blood after absorption from an intact oral mucosa after administration of a compressed lozenge containing respectively 5, 10 or 25 mg of bupivacaine. On study days 1, 2, 3 and 4 (interspersed with single wash-out days) the subjects were given one 5 mg lozenge, one 10 mg lozenge, one 25 mg lozenge or two 25 mg lozenges, respectively.
Before the study began, the subjects drank 250 ml water to remove any traces of coffee, cola or other potential absorption enhancers. After 10 minutes a compressed lozenge was administered. […] A baseline blood sample was taken, the lozenge was administered and then blood samples were taken at 0 min (i.e. when the lozenge has completely dissolved in the mouth, 15 min, 30 min, 45 min, 60 min, 75 min, 90 min, 105 min, 120 min, 150 min, 180 min, 210 min, 240 min, 270 min, 300 min, 330 min and 360 min.

[5] = plasma concentration; cited from earlier work
[6] = Study II: multiple doses kinetics; type: in vivo, human; conditions: 25 mg lozenge four times a day, 72 hours
Method: as §1
The multiple doses study was conducted over 72 hours consecutively, where the subjects were administrated a lozenge containing 25 mg of bupivacaine four times a day in the awake hours.
The aim of the study was to measure the concentration of bupivacaine in the blood after absorption from an intact oral mucosa after administration of a lozenge containing 25 mg of bupivacaine given four times a day. […] Therefore the lozenges were administered at 8 am, […], 6 pm and 10 pm, to give a total daily dose of 100 mg bupivacaine.
The subjects drank 250 ml water to remove any traces of coffee, cola or other potential absorption enhancers. After 10 minutes a compressed lozenge was administered.

[7] = safety pharmacology, single and repeated dose toxicity, reproduction toxicity, mutagenic potential, local toxicity; cited from earlier work
[8] = Pilot study Aarhus: kinetics, non-intact mucosa; type: in vivo, human; conditions: 25 mg lozenge, three head or neck cancer patients, stage 3 mucositis, non-intact oral mucosa
Method: The study was conducted over 2-3 hours on three patients from Aarhus University hospital. The patients were suffering from head or neck cancer with stage 3 mucositis with a non-intact oral mucosa. The aim of the study was to investigate the pharmacokinetics of bupivacaine by topical oral administration of a 25 mg lozenge. A baseline blood sample was taken, followed by administration of the lozenge, and then blood samples were taken at 0 min (i.e. when the lozenge is completely dissolved in the mouth), 15 min, 30 min, 45 min, 60 min, 75 min, 90 min, 105 min, 120 min, 150 min and 180 min.

[9] = standard aqueous medium, pH7.4, 25° C.

Compound: CCOC(=O)c1ccc(N)cc1 [benzocaine]
- octanol/water partition coefficient [1, 9]: 81

Compound: CCCCN1CCCCC1C(=O)Nc1c(C)cccc1C (stereo not drawn) [bupivacaine, 1-butyl-N-(2,6-dimethylphenyl)piperidine-2-carboxamide]
- influence of fasting on plasma level [2]: did not influence the results
- octanol/water partition coefficient [1, 9]: 346
- activity after heating [3]: retains full activity
- discomfort ([4]; 5 mg and 10 mg compressed lozenge): none of them felt any discomfort
- anesthetic effect felt ([4]; 5 mg and 10 mg compressed lozenge, healthy subjects): felt the anesthetic effect
- discomfort, especially in the pharynx ([4]; 25 mg compressed lozenge): some of the subjects felt discomfort
- discomfort ([4]; 50 mg (two 25 mg lozenges)): discomfort was further increased
- side effects ([4]; 5, 10, 25 and 50 mg single doses): None of the subjects experienced any side effects
- maximum bupivacaine plasma concentration ([4]; maximum dosage 50 mg (two 25 mg compressed lozenges), single dose, intact oral mucosa, healthy subjects): less than 600 ng/ml
- toxic level in man [5]: 2 to 4 µg/mL
- accumulation in the body [6]: not being accumulated in the body
- peak plasma concentrations [6]: lower than the toxic level
- risks for humans from preclinical safety data [7]: no special risks for humans
- maximum plasma concentration of bupivacaine [8]: below 700 ng/ml

Compound: CCCN(CC)C(CC)C(=O)Nc1c(C)cccc1C (stereo not drawn) [etidocaine]
- octanol/water partition coefficient [1, 9]: 800

Compound: CCCN1CCCC[C@H]1C(=O)Nc1c(C)cccc1C [ropivacaine]
- octanol/water partition coefficient [1, 9]: 115

Compound: levobupivacaine
- octanol/water partition coefficient ([1]; pH 7.4): 346
